Assay results reported in US20230321053A1, “(1R,3S)-3-((5-CYANO-4-PHENYLTHIAZOL-2-YL)CARBAMOYL)CYCLOPENTANE-1-CARBOXYLIC ACID AND DERIVATIVES THEREOF FOR USE IN THE TREATMENT OF AIRWAY DISEASES” (PALOBIOFARMA, S.L., priority 2020, published 2023).

Experiments:
[1] = system: allergic/atopic asthmatics; assay: Safety / adverse events, phase II study; assay type: in vivo, human; conditions: safety population
Method: (§1) The present trial is an exploratory study aiming at evaluating the safety, tolerability, and efficacy of a 15-day, once daily administration of 10 mg Compound (I) in subjects with persistent mild-to-moderate atopic asthma. In terms of exploratory efficacy, the primary purpose of this study is to determine whether Compound (I) compared to placebo, improves the FEV1, as well as to provide comparative safety data from this population of asthmatics. Measurements made in this study will also be used to establish whether this treatment improves other variables related to asthma control and lung function.
Of the 107 subjects who were screened, 63 (58.9%) met eligibility criteria and were randomized. Of the 63 patients who were randomized, 63 (100%) completed the study (32 and 31 in the Compound (l) and placebo groups, respectively). There were not adverse events for discontinuation. The safety population included 63 (placebo: n=31 and Compound (l): n=32). Results are based on the per protocol population (placebo: n= 27 and Compound (l): n= 31).
The data highlight the potential of the adenosine A1 receptor antagonist Compound (l) as a promising oral asthma therapy. The safety set included all randomized patients who received at least one dose of any study drug.

[2] = system: patients with mild-to-moderate persistent atopic asthma; assay: Peripheral blood eosinophil count, phase II placebo-controlled study; assay type: in vivo, human; conditions: 10 mg once daily
Source text: Eosinophil count. Peripheral blood eosinophil counts were obtained from standard complete blood counts done at every centre participating in the study. For example, by using standardized methods on a Beckman Coulter LH series analyzer (Beckman Coulter Ltd, Brea, CA, USA), Negewo, N. A. et al, Peripheral blood eosinophils: a surrogate marker for airway eosinophilia in stable COPD, Int J Chron Obstruct Pulmon Dis. 2016; 11: 1495-1504).
(§2) Eosinophils in S.I units (10^9/L) will be converted in cel/µL with the conversion factor 1 × 10^9/L =1000 cel/µL. The primary efficacy analysis on Per Protocol Population was stratified into 2 subgroups based on Eosinophils (cel/ µL) value at visit V1 from Hematology (Low < 300 cel/ µL, and High >=300 cel/ µL). Trough FEV1 on day 16 (+4-day leeway) was summarized by treatment arm and Eosinophils value at visit V1. A mixed model with FEV1 measurements on day 16 (23 h 15 min and 23 h 45 min post-dose), containing treatment arm and Eosinophils strata as fixed effects, site as random effect with baseline FEV1 on visit V5 as a covariate was fitted.
as §1
(§3) A phase II, double-blind, randomized, parallel-group, placebo-controlled multi-center study to investigate the effect of the adenosine A1 receptor antagonist Compound (I) on forced expiratory volume in 1 second (FEV1) in patients with mild-to-moderate persistent atopic asthma.
The study comprises: (i) a minimum of 5-days screening period, during which the subject’s clinical stability and overall eligibility for the study will be assessed; (ii) a weaning phase where a stepwise tapering of the asthma medication will be done upon 7-day periods; (iii) the randomized, parallel-arm treatment period; and (iv) an end-of-study follow-up visit. The asthma medication weaning period comprises three possible visit pathways in order to adjust for each subject’s asthma therapy on study entry. The study comprises a primary analysis population of 58 stable asthmatic subjects managed as described for the objectives, who meet all inclusion criteria and no exclusion criteria and complete a full, valid data set for the primary variable.

[3] = system: patients with mild-to-moderate persistent atopic asthma; assay: Trough FEV1 (spirometry), phase II placebo-controlled study; assay type: in vivo, human; conditions: for FEV1 LS means difference vs Placebo, Eosinophils category High, Estimate (SE): eosinophils High at V1, p 0.0164; for FEV1 LS means difference vs Placebo, Eosinophils category Low, Estimate (SE): eosinophils Low at V1, p 0.7778
Method: as §2
(§4) FEV1. Briefly. Spirometry measurements will be performed using spirometry equipment which meets or exceeds the minimal performance recommendations of the ATS/ERS standards (Miller M. R et al, Standardisation of spirometry, Eur Respir J 2005; 26: 319-338). Calibration and quality control should be performed before the site initiation: • a. A 3L syringe will be used to verify spirometer accuracy. • b. The accuracy of the syringe should be certified within the last 12 months and should have an accuracy of ± 15 ml. • c. Before use, the syringe should be maintained at the same temperature as the spirometer to ensure volume stability. • d. For volume-type spirometers, a calibration and leak check must be performed before each testing session according to the manufacturer’s guidelines. A calibration report stored in the site’s source documents is required to confirm the adherence to guidelines. Example of spirometry equipment used in the trial: Jaeger and ERT Spirosphere.
as §1, §3
(§5) Secondary objectives include determinations of FEV1 area under the curve (AUC), evaluations on pre- and post- bronchodilator FEV1, and patient reported outcomes (PROs) including Asthma Control Questionnaire-7 (ACQ-7) and Standardized Asthma Quality of Life Questionnaire (AQLQ(S)).
A mixed model with FEV1 measurements on day 16 (23 h 15 min and 23h 45 min post-dose), containing treatment arm as a fixed effect, site as random effect with baseline FEV1 on visit V5 as a covariate was fitted. The treatment effect was larger for Compound (l) group compared to placebo, increasing the FEV1 on 180 mL (p= 0.0816).
FEV1: forced expiratory volume in 1 second; SD: standard deviation; SE: standard error; min: minimum; max: maximum; LS: least squares; Cl: confidence interval. Trough FEV1 on day 16 (+4-day leeway), defined as the average of the FEV1 measurements taken at 23 h15 min and 23 h45 min post-dose.

[4] = system: patients with mild-to-moderate persistent atopic asthma; assay: Asthma Control Questionnaire-7 (ACQ-7), phase II study; assay type: in vivo, human; conditions: mixed model, days 8 and 15, effect: treatment; p 0.0430
Source text: as §5
Table 7 and FIG. 5. Similar trend was observed when comparing Visit and Study Arm* Visit as covariate.

[5] = system: patients with mild-to-moderate persistent atopic asthma; assay: FEV1 AUC30min-23h30min post-dose, phase II study; assay type: in vivo, human
Source text: as §4, §5

TNFalpha = conditions: rat; cited from earlier work
Brown Norway rats = conditions: orally administered, antigen induced; cited from earlier work
[6] = system: chronic obstructive pulmonary disease; conditions: 16-week trial; cited from earlier work
COPD patients [7] = conditions: baseline sputum eosinophils ≥3%; cited from earlier work
COPD patients [8] = conditions: raised baseline eosinophils; cited from earlier work
[9] = change from baseline, 10 mg, N=31

**Q.** With `N#Cc1sc(NC(=O)[C@H]2CC[C@@H](C(=O)O)C2)nc1-c1ccccc1` [Compound (I), (1R,3S)-3-((5-cyano-4-phenylthiazol-2-yl)carbamoyl)cyclopentane-1-carboxylic acid] as the molecule, how does the serious adverse events ([1]; 10 mg once daily 15 days) read?
**A.** no serious AEs reported

**Q.** What about the “severity of most adverse events” value ([1]; both groups) of the same molecule?
**A.** mild/moderate

**Q.** And the “Eosinophilic Count on Visit V7 (day 15), Mean” value ([2]; 15 days, per protocol population, N=30, baseline mean 392.9)?
**A.** 218 cel/ µL

**Q.** And the “Eosinophilic Count on Visit V7 (day 15), Median” value ([2]; 15 days, per protocol population, N=30, baseline median 370.0)?
**A.** 150.0 cel/ µL

**Q.** And the “Eosinophilic Count, Absolute Change from Baseline, Mean difference vs Placebo (90% Cl)” value ([2]; day 15)?
**A.** -233.9 (-Inf, -174.6) cel/ µL

**Q.** What about the “Eosinophilic Count, Relative Change from Baseline, Mean difference vs Placebo (90% Cl)” value ([2]; day 15, p-value <0.0001) of the same molecule?
**A.** -68.0 (-Inf, -51.95)

**Q.** And the “Eosinophilic Count, Absolute Change from Baseline, Mean” value ([2]; day 15 vs visit V5)?
**A.** -184.7 cel/ µL

**Q.** And the “Eosinophilic Count, Absolute Change from Baseline, Median” value ([2]; day 15 vs visit V5)?
**A.** -195.0 cel/ µL

**Q.** And the “Eosinophilic Count, Relative Change from Baseline, Mean” value ([2]; day 15 vs visit V5)?
**A.** -46.8

**Q.** And the “Eosinophilic Count, Relative Change from Baseline, Median” value ([2]; day 15 vs visit V5)?
**A.** -64.9

**Q.** And the “increase of trough FEV1” value [3]?
**A.** 110 to 200 mL

**Q.** What about the “Trough FEV1 day 16 (+4-day leeway), LS mean” value ([3]; 10 mg once daily 15 days, N=31, baseline mean 2.7) of the same molecule?
**A.** 3.1 L

**Q.** What about the “Trough FEV1 day 16 (+4-day leeway), LS mean difference vs. Placebo” value ([3]; 10 mg once daily 15 days, p 0.0816) of the same molecule?
**A.** 0.18 L

**Q.** And the “FEV1 LS means difference vs Placebo, Eosinophils category High, Estimate (SE)” value [3]?
**A.** 0.38 L

**Q.** What about the “FEV1 LS means difference vs Placebo, Eosinophils category High, Estimate (SE)” value ([3]; listed as COMPOUND (I)) of the same molecule?
**A.** 0.38 (0.15) L

**Q.** What about the “FEV1 LS means difference vs Placebo, Eosinophils category Low, Estimate (SE)” value [3] of the same molecule?
**A.** 0.04 L

**Q.** What about the “FEV1 LS means difference vs Placebo, Eosinophils category Low, Estimate (SE)” value ([3]; listed as COMPOUND (I)) of the same molecule?
**A.** 0.04 (0.15) L

**Q.** And the “FEV1 LS means differences in study arm vs Placebo, Estimate (SE)” value ([3]; mixed model with eosinophils strata, p 0.0596)?
**A.** 0.21 (0.11) L

**Q.** What about the “FEV1 LS means, Estimate (SE), Eosinophils category High” value ([3]; mixed model, trough FEV1 day 16, eosinophils High at visit V1, per protocol) of the same molecule?
**A.** 3.06 (0.11) L

**Q.** What about the “FEV1 LS means, Estimate (SE), Eosinophils category Low” value ([3]; mixed model, trough FEV1 day 16, eosinophils Low at visit V1, per protocol) of the same molecule?
**A.** 3.04 (0.12) L

**Q.** What about the “treatment effect, increase of FEV1 compared to placebo” value ([3]; trough FEV1 day 16, mixed model, p= 0.0816) of the same molecule?
**A.** 180 mL

**Q.** What about the “ACQ-7 overall score, Mean difference vs Placebo (90% Cl)” value [4] of the same molecule?
**A.** -0.28

**Q.** What about the “FEV1 AUC30min-23h30min post-dose through days 15-to-16, Mean” value [5, 9] of the same molecule?
**A.** 4.9

**Q.** What about the “FEV1 AUC30min-23h30min post-dose through days 15-to-16, Median” value [5, 9] of the same molecule?
**A.** 5.7

**Q.** And the “FEV1 AUC30min-23h30min post-dose through days 15-to-16, Mean difference vs Placebo (90% Cl)” value ([5]; p 0.0435)?
**A.** 3.6 (0.96)

**Q.** With `O=C(Nc1c(Cl)cncc1Cl)c1ccc(OC(F)F)c(OCC2CC2)c1` [Roflumilast] as the molecule, how does the “LPS-induced circulating TNFalpha” value (TNFalpha) read?
**A.** abrogated

**Q.** What about the “bronchoalveolar lavage fluid (BALF) eosinophilia” value (Brown Norway rats) of the same molecule?
**A.** inhibited

**Q.** What about the blood eosinophils [6] of the same molecule?
**A.** not in the blood eosinophils

**Q.** What about the “eosinophils in sputum and bronchial biopsy samples” value [6] of the same molecule?
**A.** significant reduction

**Q.** Which “improvements in exacerbation rates, SGRQ-C, CRQ-SAS scores and FEV1” value (COPD patients [7]) does the source give for “benralizumab: humanized, afucosylated, monoclonal antibody targeting the IL5-receptor α-chain” here?
**A.** not statistically significant

B1: mepolizumab: anti-IL-5 monoclonal antibody (antibody, chains of the INN, looked up, V domains shown)
VH: QVTLRESGPALVKPTQTLTLTCTVSGFSLTSYSVHWVRQPPGKGLEWLGVIWASGGTDYNSALMSRLSISKDTSRNQVVLTMTNMDPVDTATYYCARDPPSSLLRLDYWGRGTPVTVSS
VL: DIVMTQSPDSLAVSLGERATINCKSSQSLLNSGNQKNYLAWYQQKPGQPPKLLIYGASTRESGVPDRFSGSGSGTDFTLTISSLQAEDVAVYYCQNVHSFPFTFGGGTKLEIK
**Q.** Which “sputum and blood eosinophil counts compared with placebo” value (COPD patients [8]) does the source give for B1 here?
**A.** significantly reduced
